Source: patent US20200237871A1, “METHODS FOR MITIGATING LIVER INJURY AND PROMOTING LIVER HYPERTROPHY, REGENERATION AND CELL ENGRAFTMENT IN CONJUNCTION WITH RADIATION AND/OR RADIOMIMETIC TREATMENTS” (Janssen Pharmaceutica NV, priority 2019, published 2020)
Entries after “also recorded” stand apart in the source; their conditions may differ.

What was measured:
cirrhotic mice = assay: Extent of radiation induced liver disease (RILD) by SPECT-CT in cirrhotic mice (Example 5); format: in vivo, mouse; conditions: 50 Gy HIR, RWJ-800088 with LSEC transplants
Protocol: Male C57BL/6 DPPIV knockout male mice (10-14 weeks) were injected intraperitoneally with carbon tetrachloride (CCl4) twice a week for a minimum of 12 weeks until a maximum of when 5 out of 30 mice perish from the CCl4 injection. Immediately after, the animals were randomly distributed into the experimental groups.
Image-guided external beam irradiation was performed using a small animal radiation research platform (SARRP, Xstrahl Inc., Suwanee, Ga.). Mice were given gastrografin contrast through gavage to improve visualization of the gastrointestinal (GI) tract. […]
The methods were identical to Experiment 4 as described above with the exception that the CCl4 dose was increased to 20% in olive oil over 12 weeks. To evaluate the effect of RWJ-800088+Liver Sinusoidal Endothelial Cells (LSEC), RWJ-800088+Plerixafor (a selective inhibitor of CXCR4 administered pre- and post-irradiation) on radiation induced liver disease as measured by SPECT-CT in cirrhotic mice after single hepatic irradiation (HIR) at 50 Gy. […]
The dosing solution of RWJ-800088 was prepared as described in Experiment 4. […] The number of viral particles and infectious units' ratio was determined by infecting 293 cells at various dilutions, followed by immunocytochemical staining for adenoviral hexons. The infectious titer was calculated from the number of plaques formed per 1,000 viral particles. […]

factor VIII (FVIII) = assay: Factor VIII production in plasma and liver of Hemophilia A mice (ELISA, Western blot, mRNA) (Example 6); format: in vivo, mouse
From the text: 8-16-week-old male C57/BL6 mice, 8-16-week-old female and male B6129SF2/J mice (donor for isolating LSECs) and 8-16-week-old female and male Hemophilia mice (F^8tm1Kaz) mice were used in this study. Mice were housed in groups of up to 5 in micro-isolator cages on stainless steel racks (Allentown, Inc., Allentown, N.J.) with a total floor space of 500 cm^2. The cages utilized an external water bottle and a dual feeder rack (Fisher Scientific, Hampton, N.H.). These cages were stored in the storage rack which provided temperature, humidity, and ventilation control to each individual cage (Allentown, Inc.). Bed-o'Cobs ⅛″ (Fisher Scientific) were used as bedding material in each cage.
The methods were identical to Experiment 5 as described above; including the preparation of test articles (solutions of RWJ-800088 and AdHGF), isolation and transplant of LSECs, and Hepatic irradiation.
The livers of mice were irradiated at 50 Gy by using an X-ray irradiator (SARRP). At 24 hours post-irradiation, the LSECs (1×10^6 cells/mouse) were injected to the mouse through tail vein. […]
A tail bleeding test was performed in which the extent of bleeding and time to clotting over the course of 30 minutes was evaluated. FVIII protein levels were evaluated by Western blot and mRNA profiling in the blood and liver to evaluate the extent to which there was engraftment of functioning LSECs that produce FVIII. […]

methoxypolyethyleneglycol20000-propionyl-L-Isoleucyl-L-Glutamyl-Glycyl-L-Prolyl-L-Threonyl-L-Leucyl-L-Arginyl-L-Glutaminyl-L-2-Naphthylalanyl-L-Leucyl-L-Alanyl-L-Alanyl-L-Arginyl-Sarcosyl-Ne-(methoxypolyethyleneglycol20000-propionyl-L-Isoleucyl-L-Glutamyl-Glycyl-L-Prolyl-L-Threonyl-L-Leucyl-L-Arginyl-L-Glutaminyl-L-2-Naphthyl alanyl-L-Leucyl-L-Alanyl-L-Alanyl-L-Arginyl-Sarcosyl-)-Lysinamide [RWJ-800088]
protection against RILD (SPECT-CT) (cirrhotic mice): trend toward protection against RILD; also recorded: protected against RILD
levels of Factor VIII mRNA and activated protein in plasma and liver (factor VIII (FVIII); HIR+LSECs+RWJ-800088 treated hemophilia mice): increased levels
expression of factor VIII (FVIII) by ELISA in plasma and liver compared to non-treated Haemophilia A mice (factor VIII (FVIII); HIR+LSECs+drug): prolonged expression
